How the values were obtained:
AKT1ΔPH = target: T1, AKT1ΔPH (Homo sapiens, UniProt P31749); assay: In vitro kinase assay with recombinant AKT lacking the pleckstrin homology domain; type: biochemical; settings: AKTΔPH versus full-length AKT
T1 construct: purchased Upstate Biotechnology
Description: In vitro inhibition of recombinant AKT. In vitro kinase assays can be performed using an active, recombinant, full length AKT1/PKBα protein (available from Upstate Biotechnology, Lake Placid, N.Y.) or with an active, recombinant AKT1/PKBα protein, referred to herein as AKT1ΔPH, that lacks the pleckstrin homology domain (also available from Upstate Biotechnology). 10 ng of the recombinant enzyme in 25 μl 1× kinase buffer (25 mM Tris, pH 7.5; 5 mM β-glycerol phosphate; 2 mM dithiothreitol; 0.1 mM Na3VO4; and 10 mM MgCl2) is mixed with 2.5 μl of DMSO and a test compound (5 μM). Samples are incubated on ice for 1 hour, at which time 1 μg of GSK-3 fusion protein (Cell Signaling Technology, Beverly, Mass., catalog #9278) is added followed by ATP (200 μM) to each reaction mixture. After incubating the suspensions at 30° C. for 30 minutes, the reaction can be terminated by the addition of 3×SDS sample buffer (187.5 mM Tris-HCl, pH 6.8; 6% SDS; 30% glycerol; 150 mM dithiothreitol; and 0.03% bromophenol blue). The samples are then boiled for five minutes. The proteins can be separated on a 12% SDS polyacrylamide gel, and subsequently transferred to a nitrocellulose membrane. The membranes are preferably incubated with rabbit polyclonal anti-phospho-GSK-3α/β (Ser21/9) antibody (available from Cell Signaling Technology, Beverly, Mass., catalog # 9331). […]

AKT = assay: Translocation of AKT from cytoplasm to nucleus in Rh1 cells, confocal microscopy; type: cell-based, human; settings: 5 μM, 1 hour, IGF-1 10 ng/ml 20 minutes
Description: Translocation of AKT in Rh1 cells. Rh1 cells (2×10^5 per chamber) can be grown on 2-well glass chamber slides (available from Falcon, Franklin Lakes, N.J.) in serum-free medium containing fibronectin (10 μg/ml). Preferably after twenty hours, the cells are exposed to DMSO (0.1%, vehicle control) or test compound (e.g., 5 μM of phenoxazine or acridone compound) for one hour and then stimulated with IGF-I (10 ng/ml) for 20 minutes. Cells are preferably washed twice with PBS and fixed in 4% formaldehyde for 30 minutes at room temperature. The samples are then rinsed twice with PBS and permeabilized with 1% Triton X-100 for five minutes at room temperature. After rinsing twice with PBS, the cells are incubated with an anti-AKT antibody (available from Rockland, West Chester, Pa.) (1:50 dilution) for 45 minutes at 37° C. […] After rinsing twice with PBS, the slides can be mounted in media containing TOPRO-3 (also available from Molecular Probes) and analyzed by routine confocal microscopy.
Upon activation, AKT translocates to the nucleus (see, e.g., Biggs et al. Proc. Natl. Acad. Sci. USA 1999;96:7421-7426; Brownawell et al. Mol. Cell. Biol. 2001;21:3534-3546; Brunet et al. Cell 1999;96:857-868; and Rena et al. J. Biol. Chem. 1999;274:17179-17183). […] Cellular localization of AKT may then be assessed, e.g. by confocal microscopy.

Rh30 cells = assay: Cell growth inhibition, Rh30 cells; type: cell-based, human; settings: complete medium, six days, nuclei counted
Description: Cell lines and growth conditions. The human cell lines Rh1, Rh18, and Rh30 (ATCC Deposit # CRL 2061) have been described, e.g., by Hazelton et al. Cancer Res 1987;47:4501-4507 and Hosoi et al. Cancer Res. 1999;59:886-894. Rh1, Rh18 and Rh30 cells can each be grown in antibiotic free RPMI-1640 medium (available from BioWhittaker, Walkersville, Md.), supplemented with 10% fetal bovine serum (available from HyClone Laboratories, Logan, Utah) and 2 mM L-glutamine (available from BioWhittaker, Walkersville, Md.) at 37° C. in an atmosphere of 5% CO2. For serum free experiments, cells can be cultured in modified N2E (MN2E) medium (DMEM/F-12, 1:1 mixture) (Sigma, St. Louis, Mo.) supplemented with 1 μg/ml human holo transferrin, 30 nM sodium selenite, 20 nM progesterone, 100 μM putrescine, 30 nM vitamin E phosphate, and 50 μM ethanolamine. […]
Cell growth inhibition. […] Growth can be assessed after lysing cells, and counting nuclei. […]
The effect(s) of compounds, including phenoxazine compounds such as those listed in Table I, above, on cell growth can be evaluated in cell-based assays such as the exemplary assays described here. Rh1, Rh18 and/or Rh30 cells grown in complete medium can be exposed to graded concentrations of test compound (e.g., from 0.1 to 25 μM) for six days, at which time the cells can be lysed and their growth assessed by counting nuclei. […]

T1 sequence (P31749 118-480 limits assumed, stated change not applied): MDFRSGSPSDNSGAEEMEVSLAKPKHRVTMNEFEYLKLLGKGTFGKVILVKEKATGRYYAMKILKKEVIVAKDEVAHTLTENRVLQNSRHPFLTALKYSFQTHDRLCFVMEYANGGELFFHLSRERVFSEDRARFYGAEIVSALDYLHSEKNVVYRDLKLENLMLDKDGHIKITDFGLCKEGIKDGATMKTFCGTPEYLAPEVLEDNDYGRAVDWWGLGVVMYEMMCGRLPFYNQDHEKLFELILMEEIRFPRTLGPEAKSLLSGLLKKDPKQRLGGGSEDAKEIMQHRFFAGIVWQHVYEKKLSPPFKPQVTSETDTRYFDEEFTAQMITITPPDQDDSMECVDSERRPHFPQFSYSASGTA

Compound	ability to inhibit AKT kinase activity after deletion of the PH domain (AKT1ΔPH)	nuclear localization of AKT (AKT)	IC50 (Rh30 cells) [µM]
10-[4′-[(β-hydroxyethyl)piperazino]butyl]-2-chlorophenoxazine [Compound 15B]	unaffected by deletion of the PH domain	block in nuclear localization occurs	6
CCN(CC)CCCCN1c2ccccc2Oc2ccc(Cl)cc21 [Compound 10B, 10-[4′-(N-diethylamino)butyl]-2-chlorophenoxazine]	unaffected by deletion of the PH domain	block in nuclear localization occurs	6
